# Test results published in US20060264494A1, “Heterocyclic amide derivatives which process glycogen phorylase inhibitory activity” (AstraZeneca AB, priority 2003, published 2006).
# Like-named read-outs stand apart in the source and are kept apart here.
# How the values were obtained:
# [1] = conscious dogs, following a glucagon challenge; cited from earlier work
# [2] = db/db and ob/ob mice; dose related; cited from earlier work
# hepatocytes = settings: cited from earlier work
# [3] = molecular target: T1, Human recombinant liver glycogen phosphorylase a (hrl GPa) (Homo sapiens, UniProt P06737); test: glycogen phosphorylase inhibition, multienzyme coupled assay; assay type: biochemical
# T1 sequence (P06737 1-847): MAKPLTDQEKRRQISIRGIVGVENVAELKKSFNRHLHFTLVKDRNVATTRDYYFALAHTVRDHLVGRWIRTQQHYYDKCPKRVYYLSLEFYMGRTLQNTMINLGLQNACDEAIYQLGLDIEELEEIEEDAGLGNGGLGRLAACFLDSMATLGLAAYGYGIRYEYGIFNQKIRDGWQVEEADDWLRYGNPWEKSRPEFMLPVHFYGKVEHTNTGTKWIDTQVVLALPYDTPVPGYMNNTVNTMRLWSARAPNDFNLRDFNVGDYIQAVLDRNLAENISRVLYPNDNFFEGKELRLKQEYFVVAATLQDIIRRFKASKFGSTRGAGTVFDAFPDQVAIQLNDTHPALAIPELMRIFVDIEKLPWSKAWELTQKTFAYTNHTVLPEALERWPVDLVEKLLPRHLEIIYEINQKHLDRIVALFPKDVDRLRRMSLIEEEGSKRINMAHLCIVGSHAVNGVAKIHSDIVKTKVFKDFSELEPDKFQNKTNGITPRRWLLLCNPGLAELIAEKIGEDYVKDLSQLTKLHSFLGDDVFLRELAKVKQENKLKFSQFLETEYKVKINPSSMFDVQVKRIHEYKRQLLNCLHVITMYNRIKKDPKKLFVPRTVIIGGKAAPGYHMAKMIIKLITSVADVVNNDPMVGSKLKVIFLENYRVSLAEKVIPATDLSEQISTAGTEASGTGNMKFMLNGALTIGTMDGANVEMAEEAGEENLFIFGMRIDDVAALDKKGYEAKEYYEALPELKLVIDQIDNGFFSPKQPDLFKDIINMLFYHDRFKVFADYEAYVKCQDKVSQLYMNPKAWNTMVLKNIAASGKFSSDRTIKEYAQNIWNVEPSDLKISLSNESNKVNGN
# Description: The activity of the compounds is determined by measuring the inhibitory effect of the compounds on glycogen degradation, the production of glucose-1-phosphate from glycogen is monitored by the multienzyme coupled assay, as described in EP 0 846 464 A2, general method of Pesce et al (Pesce, M A, Bodourian, S H, Harris, R C, and Nicholson, J F (1977) Clinical Chemistry 23, […]). The reactions were in 384 well microplate format in a volume of 50 μl. The change in fluorescence due to the conversion of the co-factor NAD to NADH is measured at 340 nm excitation, 465 nm emission in a Tecan Ultra Multifunctional Microplate Reader. The reaction is in 50 mM HEPES, 3.5 mM KH2PO4, 2.5 mM MgCl2, 2.5 mM ethylene glycol-bis(b-aminoethyl ether) N,N,N′,N′-tetraacetic acid, 100 mM KCl, 8 mM D-(+)-glucose pH7.2, containing 0.5 mM dithiothreitol, the assay buffer solution. Human recombinant liver glycogen phosphorylase a (hrl GPa) 20 nM is pre-incubated in assay buffer solution with 6.25 mM NAD, 1.25 mg type III glycogen at 1.25 mg ml^−1 the reagent buffer, for 30 minutes. The coupling enzymes, phosphoglucomutase and glucose-6-phosphate dehydrogenase (Sigma) are prepared in reagent buffer, final concentration 0.25 Units per well. 20 μl of the hrl GPa solution is added to 10 μl compound solution and the reaction started with the addition of 20 μl coupling enzyme solution. Compounds to be tested are prepared in 10 μl 5% DMSO in assay buffer solution, with final concentration of 1% DMSO in the assay. The non-inhibited activity of GPa is measured in the presence of 10 μl 5% DMSO in assay buffer solution and maximum inhibition measured in the presence of 5 mgs ml^−1 N-ethylmaleimide. After 6 hours at 30° C. Relative Fluoresence Units (RFUs) are measured at 340 nm excitation, 465 nm emission.
# The assay is performed at a test concentration of inhibitor of 10 μM or 100 μM.
# thermodynamic solubility = assay type: physicochemical; settings: 0.1 M phosphate buffer, pH 7.4, aqueous buffer, thermodynamic from solid, 0.1 M phosphate at pH7.4 for 24 hours
# [4] = hrl GPa 20 nM, 6 hours at 30° C., read-out: Activity (μM) IC50
compound,measurement,setting,value
CCN1C(C)=C(C(=O)OC(C)C)C(c2ccccc2Cl)C2=C1COC2=O (stereo not drawn) [Bay R 3401],arterial plasma glucose,[1],reduced significantly
same,hepatic glucose output,[1],reduced significantly
O=C(N[C@@H](Cc1ccc(F)cc1)C(=O)N1CCC(O)CC1)c1cc2cc(Cl)ccc2[nH]1 [CP320626],plasma glucose concentration,[2],reduced
same,glucagon stimulated glycogenolysis,hepatocytes,reduce
same,glucose output in hepatocytes,hepatocytes,reduce
CN(C)C(=O)[C@H](O)[C@H](Cc1ccccc1)NC(=O)c1cc2cc(Cl)ccc2[nH]1 [CP91149],plasma glucose concentration,[2],reduced
same,glucagon stimulated glycogenolysis,hepatocytes,reduce
same,glucose output in hepatocytes,hepatocytes,reduce
"2-Chloro-N-{(1R,2R)-1-[[(2S)-2,3-dihydroxypropanoyl](methyl)amino]-2,3-dihydro-1H-inden-2-yl}-6H-thieno[2,3-b]pyrrole-5-carboxamide [Example 8]",IC50,[3]; [4],0.07 µM
same,IC50,"[3]; text b160, unit printed as nm, read-out: IC50",0.176 µM
CC(=O)N(C)[C@@H]1c2ccccc2C[C@H]1NC(=O)c1cc2sc(Cl)c(Cl)c2[nH]1 [Reference Eg 1],IC50,[3]; [4],~0.4 µM
same,solubility at 24 h,thermodynamic solubility,1.4 µM
"COCC(=O)N(C)[C@@H]1c2ccccc2C[C@H]1NC(=O)c1cc2cc(Cl)sc2[nH]1 [Example 1, 2-Chloro-N-{(1R,2R)-1-[(methoxyacetyl)(methyl)amino]-2,3-dihydro-1H-inden-2-yl}-6H-thieno[2,3-b]pyrrole-5-carboxamide]",IC50,"[3]; text b160, read-out: IC50",0.265 µM
"CN(C(=O)[C@@H](N)CO)[C@@H]1c2ccccc2C[C@H]1NC(=O)c1cc2sc(Cl)c(Cl)c2[nH]1.Cl [Example 27, 2,3-Dichloro-N-{(1R,2R)-1-[methyl(L-seryl)amino]-2,3-dihydro-1H-inden-2-y}-4H-thieno[3,2-b]pyrrole-5-carboxamide hydrochloride]",IC50,[3]; [4],0.11 µM
same,solubility at 24 h,thermodynamic solubility,50 µM
